Where two headings read alike, the source gives them in different places.
Tests used:
Format in all cases: cell-based
OVCAR-5 = test: NCI-60 5 dose screen, Ovarian Cancer; conditions: Homo sapiens
PC-3 = test: NCI-60 5 dose screen, Prostate cancer; conditions: Homo sapiens
HCT-2998 = test: NCI-60 5 dose screen, Colon Cancer; conditions: Homo sapiens
SK-OV-3 = test: NCI-60 5 dose screen, Ovarian Cancer; conditions: Homo sapiens
MDA-MB-231 cells = test: Cell viability assay, antiproliferative activity; conditions: Homo sapiens, MDA-MB-231, 72 h, read-out: Antiproliferative Activity IC50 MDA-MB-231, 72 h
From the text: Selected β-lactam compounds were next evaluated in the triple negative cell line MDA-MB-231 (Table 4). […] These cancers are difficult to treat since they are generally not responsive to hormone therapies such as the selective oestrogen receptor modulator (SERM) tamoxifen, or aromatase inhibitors such as anastrozole, or to the monoclonal antibody Herceptin, which targets the HER2 receptor. There are fewer treatment options available for TNBC compared with ER+, PR+ and HER2+ breast cancers and the prognosis is poorer. […]. The human breast carcinoma cell line MCF-7 was purchased from the European Collection of Animal Cell Cultures (ECACC). Triple negative breast cancer Hs578T cells and its invasive variant Hs578Ts(i)8 were a kind gift from Dr. Susan McDonnell, School of Chemical and Bioprocess Engineering, University College Dublin. U266 cells were a gift from Dr. Tony McElligott, School of Medicine, St James’s Hospital, Trinity College Dublin. HT-29 cells were purchased from the European Collection of Cell Cultures (originating from a human adenocarcinoma of the colon). The human breast carcinoma cell line MDA-MB-231 and the HL-60 cells derived from a patient with acute myeloid leukaemia were both obtained from ECACC (Salisbury, UK). The SW-480 cells were a kind gift from Dr. Brian Flood, School of Biochemistry and Immunology, Trinity College Dublin. HEK-293T (normal epithelial embryonic kidney cells) were cultured in Dulbecco’s Modified Eagle’s Medium (DMEM) with GlutaMAXTM-I in the absence of non-essential amino acids. Human breast cancer MCF-7 cells and multiple myeloma U266 cells were cultured in Minimum Essential Media (MEM) with GlutaMAX™-I, supplemented with 1% (v/v) non-essential amino acids, 10% 2(v/v) foetal bovine serum (FBS) and 1% (v/v) penicillin/streptomycin 5000 U/mL. MDA-MB-231 cells were maintained in DMEM supplemented with 10% (v/v) foetal bovine serum, 2 mM L-glutamine and 100 μg/mL penicillin/streptomycin (complete medium). Colon cancer HT-29 and SW-480 and triple negative breast cancer Hs578T and its invasive variant Hs578T8i were cultured in DMEM with GlutaMAX™-I, with the same supplement in the absence of non-essential amino acids. Leukaemia HL-60 cancer cells were cultured in Roswell Park Memorial Institute Media (RPMI-1640) with GlutaMAX™-I, supplemented with 10% FCS media, and 100 μg/mL penicillin/streptomycin as above. Cell numbers were monitored using a haemocytometer. Cell culture flasks were incubated in a humidified incubator (5% CO2/95% air) at 37 °C. All cell lines were sub-cultured three times per week with trypsinisation using TrypLE Express (1X) required for adherent cell lines.
. All stock solutions and serial dilution in ethanol/DMSO were stored at -20 °C. All cells were seeded at a density of 2.5 × 10^4 cells/mL in a 96-well plate (200 μL per well). The cells were incubated in a […] atmosphere at 37 °C for 24 h, then treated with test compound (2 μL of stock solutions per 200-microlitre well) in ethanol to obtain a concentration range of 1 nM–200 μM for the study. The plates were then re-incubated for a further 72 h. Control wells contained an equivalent volume of the vehicle ethanol or DMSO (1% v/v). MTT cell viability assay: The culture medium was removed, and the cells were washed with phosphate buffered saline (PBS, […]). MTT (dissolved in PBS, […]) was added to obtain a final concentration of MTT (1 mg/mL). Cells were incubated at 37 °C for 3 h in the dark. Solubilisation was commenced by the addition of DMSO ([…]) and the cells were maintained at 20 °C in the dark for 20 min before reading the absorbance to ensure complete colour diffusion. The absorbance value of control cells (no added compound) was set to 100% cell viability and absorbance versus cell density per well was determined to assess cell viability using Graph-Pad Prism software. […]

UACC-257 = test: NCI-60 5 dose screen, Melanoma; conditions: Homo sapiens
MDA-MB-435 = test: NCI-60 5 dose screen, Melanoma; conditions: Homo sapiens
SK-MEL-28 = test: NCI-60 5 dose screen, Melanoma; conditions: Homo sapiens
OVCAR-4 = test: NCI-60 5 dose screen, Ovarian Cancer; conditions: Homo sapiens
SW-620 = test: NCI-60 5 dose screen, Colon Cancer; conditions: Homo sapiens

| Compound | GI50 (OVCAR-5; read-out: GI50) [µM] | GI50 (PC-3; read-out: GI50) [µM] | GI50 (HCT-2998; HCT-2998, read-out: GI50) [µM] | GI50 (SK-OV-3; read-out: GI50) [µM] | IC50 (MDA-MB-231 cells; 10e and 11n results from NCI) [µM] | GI50 (UACC-257; read-out: GI50) [µM] | GI50 (MDA-MB-435; read-out: GI50) [µM] | GI50 (SK-MEL-28; read-out: GI50) [µM] | GI50 (OVCAR-4; read-out: GI50) [µM] | GI50 (SW-620; read-out: GI50) [µM] | GI50 (OVCAR-5) [µM] | GI50 (PC-3) [µM] | GI50 (HCT-2998) [µM] | GI50 (SK-OV-3) [µM] | IC50 (MDA-MB-231 cells) [µM] | GI50 (UACC-257) [µM] | GI50 (MDA-MB-435) [µM] | GI50 (SK-MEL-28) [µM] | GI50 (OVCAR-4) [µM] | GI50 (SW-620) [µM] |
| --- | --- | --- | --- | --- | --- | --- | --- | --- | --- | --- | --- | --- | --- | --- | --- | --- | --- | --- | --- | --- |
| COc1ccc([C@H]2[C@H](Cl)C(=O)N2c2cc(OC)c(OC)c(OC)c2)cc1 (relative stereo) [Compound 10e trans, Trans-3-chloro-1-(3,4,5-trimethoxyphenyl)-4-(4-methoxyphenyl) azetidin-2-one] | 0.0806 | 0.0441 | 0.0804 | 0.182 | 0.0686 | 23.3 | 0.0226 | 0.0696 | 0.106 | 0.0432 |  |  |  |  |  |  |  |  |  |  |
| COc1ccc(/C=C\c2cc(OC)c(OC)c(OC)c2)cc1O [CA-4, Combretastatin A-4] |  |  |  |  | 0.043 |  |  |  |  |  |  |  |  |  |  |  |  |  |  |  |
| COc1ccc(C2N(c3cc(OC)c(OC)c(OC)c3)C(=O)C2(Cl)Cl)cc1O (stereo not drawn) [Compound 11n, 3,3-Dichloro-4-(3-hydroxy-4-methoxyphenyl)-1-(3,4,5-trimethoxyphenyl)azetidin-2-one] |  |  |  |  |  |  |  |  |  |  | 0.312 | 0.0353 | 0.0534 | 0.0254 | 0.0316 | 0.158 | 0.0202 | 0.0629 | 0.0741 | 0.0376 |
| CCSc1ccc(C2C(Br)C(=O)N2c2cc(OC)c(OC)c(OC)c2)cc1 (stereo not drawn) [Compound 16d, 3-Bromo-4-(4-(ethylthio)phenyl)-1-(3,4,5-trimethoxyphenyl)azetidin-2-one] | 0.431 | 0.297 | 0.673 | 0.392 |  | 14.3 | 0.0377 | 1.94 | 1.43 | 0.236 |  |  |  |  |  |  |  |  |  |  |
